Type in all cases: cell-based
For assay [1], the system named is methicillin-susceptible Staphylococus aureus (MSSA). The assay is described as follows: MIC, NCCLS microdilution broth procedure, MSSA. Particulars: for MIC: Staphylococcus aureus, read-out: minimum inhibitory concentration (MIC). The protocol:
(§1) The following table identifies specific species of compounds according to the present invention and information concerning their associated antibacterial activity. The antibacterial activity of three compounds in accordance with the present invention (N-biphenyl-methyl-norvacomycin (A); N-chloro-biphenyl-methyl-norvacomycin (B) and desmethyl-vancomycin-gly-p-n-octyloxybenzyl (C)) were tested and compared to unmodified vancomycin (Van) and norvancoycin (Nor). MIC (minimum inhibitory concentration) was measured according to NCCLS standards using the microdilution broth procedure. Serial dilutions of the compounds were placed in a 96-well microplate containing Mueller-Hinton medium. Based on absorbance of 600 nm, diluted overnight cultures were placed in the wells at a final concentration of 5×10^5 cfu/mL. The plate was then placed in a culture box at 35° C. The next day, MIC was determined by visual observation of the plates.
(§2) The glycopeptides were tested against a variety of strains well known in the art for such testing, including methicillin-susceptible Staphylococus aureus (MSSA), methicillin-susceptible Staphylococus epidermidis (MSSE), methicillin-resistant Staphylococus aureus (MRSA), methicillin-resistant Staphylococus epidermidis (MRSE), and glycopeptide-intermediate Staphylococus aureus (GISA). Results are shown in the Table 1 as minimum inhibitory concentration (MIC) in units of μg/ml: […]

Assay [2] concerns methicillin-resistant Staphylococus aureus (MRSA). The assay is described as follows: MIC, NCCLS microdilution broth procedure, MRSA. Particulars: for MIC: Staphylococcus aureus, MRSA. The method, then:
as §1, §2
For orientation: Dilution methods test growth across graded concentrations, often in twofold steps.

For assay [3], the system named is methicillin-susceptible Staphylococus epidermidis (MSSE). Description: MIC, NCCLS microdilution broth procedure, MSSE. Particulars: for MIC: read-out: minimum inhibitory concentration (MIC). The protocol: as §1, §2
In assay [4] the test system is methicillin-resistant Staphylococus epidermidis (MRSE). Description: MIC, NCCLS microdilution broth procedure, MRSE. To be noted: for MIC: Staphylococcus epidermidis, read-out: minimum inhibitory concentration (MIC). The method, then: as §1, §2
In assay [5] the test system is glycopeptide-intermediate Staphylococus aureus (GISA) (V). The assay is described as follows: MIC, NCCLS microdilution broth procedure, GISA (V). The method, then:
as §1, §2

The subject of assay [6] is glycopeptide-intermediate Staphylococus aureus (GISA) (D). The assay is described as follows: MIC, NCCLS microdilution broth procedure, GISA (D). The protocol: as §1, §2
Setting [7] is: MRSA strain # 134, read-out: minimum inhibitory concentration (MIC).
Where [8] appears, read: MRSA strain # 143, read-out: minimum inhibitory concentration (MIC).
[9] abbreviates: GISA (V) strain # 68, read-out: minimum inhibitory concentration (MIC).
The mark [10] stands for this setting: GISA (V) strain # 143, read-out: minimum inhibitory concentration (MIC).
[11] abbreviates: GISA (D) strain # 68, read-out: minimum inhibitory concentration (MIC).
[12] abbreviates: read-out: minimum inhibitory concentration (MIC).

≈ marks a conversion by molar mass, not a printed value. Like-named read-outs stand apart in the source and are kept apart here.

As for `CC(C)C[C@H](N)C(=O)N[C@H]1C(=O)N[C@@H](CC(N)=O)C(=O)N[C@H]2C(=O)N[C@H]3C(=O)NC(C(=O)N[C@H](C(=O)O)c4cc(O)cc(O)c4-c4cc3ccc4O)[C@H](O)c3ccc(c(Cl)c3)Oc3cc2cc(c3OC2O[C@H](CO)[C@@H](O)[C@H](O)C2O[C@H]2C[C@](C)(NCc3ccc(-c4ccccc4)cc3)[C@H](O)[C@H](C)O2)Oc2ccc(cc2Cl)[C@H]1O` (some centres unmarked) [Compound A, N-Biphenyl-Methyl-Desmethyl-vancomycin], the “minimum inhibitory concentration (MIC)” value in assay [1] (MSSA strain # 83) came out at 2 µg/mL (≈ 1.25 µM); in assay [3] (MSSE strain # 10), 4 µg/mL (≈ 2.5 µM); in assay [4] (MRSE strain # 25), 4 µg/mL (≈ 2.5 µM); in assay [4] (MRSE strain # 26), 4 µg/mL (≈ 2.5 µM); in assay [6] (GISA (D) strain # 143), 8 µg/mL (≈ 5 µM). Also, the MIC is 2 µg/mL (≈ 1.25 µM) in assay [1] (MSSA strain # 68); 2 µg/mL (≈ 1.25 µM) in assay [2] (setting [7]); 4 µg/mL (≈ 2.5 µM) in assay [2] (setting [8]); 4 µg/mL (≈ 2.5 µM) in assay [3] (MSSE strain # 3); 4 µg/mL (≈ 2.5 µM) in assay [4] (MRSE strain # 24); 8 µg/mL (≈ 5 µM) in assay [5] (setting [9]). Moreover, the results for the MIC in assay [5] (setting [10]) and in assay [6] (setting [11]) were 4 µg/mL (≈ 2.5 µM) and 8 µg/mL (≈ 5 µM), respectively.

For the molecule `CC(C)C[C@H](N)C(=O)N[C@H]1C(=O)N[C@@H](CC(N)=O)C(=O)N[C@H]2C(=O)N[C@H]3C(=O)NC(C(=O)N[C@H](C(=O)O)c4cc(O)cc(O)c4-c4cc3ccc4O)[C@H](O)c3ccc(c(Cl)c3)Oc3cc2cc(c3OC2O[C@H](CO)[C@@H](O)[C@H](O)C2O[C@H]2C[C@](C)(NCc3ccc(-c4ccc(Cl)cc4)cc3)[C@H](O)[C@H](C)O2)Oc2ccc(cc2Cl)[C@H]1O` (some centres unmarked) [Compound B, N-Chloro-Biphenyl-Methyl-Desmethyl-vancomycin], the “minimum inhibitory concentration (MIC)” value was determined as 0.5 µg/mL (≈ 0.306 µM) in assay [1] (MSSA strain # 83); 0.5 µg/mL (≈ 0.306 µM) in assay [3] (MSSE strain # 10); 0.5 µg/mL (≈ 0.306 µM) in assay [4] (MRSE strain # 25); 0.5 µg/mL (≈ 0.306 µM) in assay [4] (MRSE strain # 26); 1 µg/mL (≈ 0.611 µM) in assay [6] (GISA (D) strain # 143). Also, the MIC in assay [1] (MSSA strain # 68) is 0.5 µg/mL (≈ 0.306 µM); in assay [2] (setting [7]), 0.5 µg/mL (≈ 0.306 µM); in assay [2] (setting [8]) it was 0.5 µg/mL (≈ 0.306 µM); in assay [3] (MSSE strain # 3), 0.5 µg/mL (≈ 0.306 µM); in assay [4] (MRSE strain # 24) it was 0.5 µg/mL (≈ 0.306 µM); in assay [5] (setting [9]), 1 µg/mL (≈ 0.611 µM). In addition, the MIC in assay [5] (setting [10]) and in assay [6] (setting [11]) was 1 µg/mL (≈ 0.611 µM) in each case.

`CCCCCCCCOc1ccc(CNCC(=O)N[C@@]2(C)C[C@H](OC3C(Oc4c5cc6cc4Oc4ccc(cc4Cl)[C@@H](O)[C@@H](NC(=O)[C@@H](N)CC(C)C)C(=O)N[C@@H](CC(N)=O)C(=O)N[C@H]6C(=O)N[C@H]4C(=O)NC(C(=O)N[C@H](C(=O)O)c6cc(O)cc(O)c6-c6cc4ccc6O)[C@H](O)c4ccc(c(Cl)c4)O5)O[C@H](CO)[C@@H](O)[C@@H]3O)O[C@@H](C)[C@H]2O)cc1` (some centres unmarked) [Compound C, Desmethyl-vancomycin-Gly-p-n-Octyloxybenzyl]: the “minimum inhibitory concentration (MIC)” value in assay [1] (MSSA strain # 83) was 2 µg/mL (≈ 1.17 µM); in assay [3] (MSSE strain # 10), 1 µg/mL (≈ 0.585 µM); in assay [4] (MRSE strain # 25), 2 µg/mL (≈ 1.17 µM); in assay [4] (MRSE strain # 26), 2 µg/mL (≈ 1.17 µM); in assay [6] (GISA (D) strain # 143) it was 4 µg/mL (≈ 2.34 µM). In addition, the MIC is 2 µg/mL (≈ 1.17 µM) in assay [1] (MSSA); 2 µg/mL (≈ 1.17 µM) in assay [2] (read-out: minimum inhibitory concentration (MIC), MRSA strain # 134); 1 µg/mL (≈ 0.585 µM) in assay [2] (read-out: minimum inhibitory concentration (MIC), MRSA strain # 143); 1 µg/mL (≈ 0.585 µM) in assay [3]; 2 µg/mL (≈ 1.17 µM) in assay [4] (MRSE); 4 µg/mL (≈ 2.34 µM) in assay [5] (read-out: minimum inhibitory concentration (MIC), GISA (V) strain # 68). Also, the MIC in assay [5] (read-out: minimum inhibitory concentration (MIC), GISA (V) strain # 143) is 2 µg/mL (≈ 1.17 µM); in assay [6] (setting [12]), 4 µg/mL (≈ 2.34 µM).

Consider `CC(C)C[C@@H](N)C(=O)N[C@H]1C(=O)N[C@@H](CC(N)=O)C(=O)N[C@H]2C(=O)N[C@H]3C(=O)N[C@H](C(=O)N[C@H](C(=O)O)c4cc(O)cc(O)c4-c4cc3ccc4O)[C@H](O)c3ccc(c(Cl)c3)Oc3cc2cc(c3O[C@@H]2O[C@H](CO)[C@@H](O)[C@H](O)[C@H]2O[C@H]2C[C@](C)(N)[C@H](O)[C@H](C)O2)Oc2ccc(cc2Cl)[C@H]1O` [Nor, norvancoycin, reference compound], for which the “minimum inhibitory concentration (MIC)” value in assay [1] (MSSA strain # 68), in assay [1] (MSSA strain # 83), in assay [2] (MRSA strain # 134), in assay [2] (MRSA strain # 143), in assay [3] (MSSE strain # 3) and in assay [3] (MSSE strain # 10) was 2 µg/mL (≈ 1.39 µM) each time. Moreover, the “minimum inhibitory concentration (MIC)” value was 2 µg/mL (≈ 1.39 µM) in assay [4] (MRSE strain # 24); 2 µg/mL (≈ 1.39 µM) in assay [4] (MRSE strain # 25); 2 µg/mL (≈ 1.39 µM) in assay [4] (MRSE strain # 26); 4 µg/mL (≈ 2.79 µM) in assay [5] (GISA (V) strain # 68); 8 µg/mL (≈ 5.57 µM) in assay [5] (GISA (V) strain # 143); 4 µg/mL (≈ 2.79 µM) in assay [6] (GISA (D) strain # 68). Further, the “minimum inhibitory concentration (MIC)” value in assay [6] (GISA (D) strain # 143) turned out to be 4 µg/mL (≈ 2.79 µM).

As for `CN[C@H](CC(C)C)C(=O)N[C@H]1C(=O)N[C@@H](CC(N)=O)C(=O)N[C@H]2C(=O)N[C@H]3C(=O)N[C@H](C(=O)N[C@H](C(=O)O)c4cc(O)cc(O)c4-c4cc3ccc4O)[C@H](O)c3ccc(c(Cl)c3)Oc3cc2cc(c3O[C@@H]2O[C@H](CO)[C@@H](O)[C@H](O)[C@H]2O[C@H]2C[C@](C)(N)[C@H](O)[C@H](C)O2)Oc2ccc(cc2Cl)[C@H]1O` [Van, vancomycin], the “minimum inhibitory concentration (MIC)” value in assay [1] (MSSA strain # 83) was found to be 2 µg/mL (≈ 1.38 µM); in assay [2] (MRSA strain # 143), 2 µg/mL (≈ 1.38 µM); in assay [3] (MSSE strain # 10), 2 µg/mL (≈ 1.38 µM); in assay [4] (MRSE strain # 25), 2 µg/mL (≈ 1.38 µM); in assay [4] (MRSE strain # 26), 2 µg/mL (≈ 1.38 µM); in assay [5] (GISA (V) strain # 143), 8 µg/mL (≈ 5.52 µM). The MIC in assay [1] (MSSA) was found to be 2 µg/mL (≈ 1.38 µM); in assay [2] (setting [12]), 2 µg/mL (≈ 1.38 µM); in assay [3] it was 2 µg/mL (≈ 1.38 µM); in assay [4] (MRSE), 2 µg/mL (≈ 1.38 µM); in assay [5] (setting [12]), 8 µg/mL (≈ 5.52 µM); in assay [6] (read-out: minimum inhibitory concentration (MIC), GISA (D) strain # 68) it was 8 µg/mL (≈ 5.52 µM). Also, the MIC in assay [6] (read-out: minimum inhibitory concentration (MIC), GISA (D) strain # 143) was determined as 4 µg/mL (≈ 2.76 µM).

Source of the values: US20090131304A1, “Semi-Synthetic Desmethyl-Vancomycin-Based Glycopeptides With Antibiotic Activity” (Novartis Vaccines and Diagnostics, Inc., priority 2005, published 2009).
